This is an account of results in US20240254115A1 (ACONDICIONAMIENTO TARRASENSE, priority 2021, published 2024).

One assay addresses T1, human σ2/TMEM97 receptor (Homo sapiens, UniProt Q5BJF2).
T1 construct: expressed in transfected cells; host or cells: HEK-293
In words: Binding assay to human σ2/TMEM97 receptor. To be noted: transfected HEK-293 membranes, 10 nM [3H]-DTG, 25° C. 120 minutes; + may also stand for 1-50% inhibition at 1 or 10 μM; read-out: Binding σ-2 Ki. Here is the method: Binding Assay to Human σ2/TMEM97 Receptor
Transfected HEK-293 membranes (15 μg) were incubated with 10 nM [^3H]-1,3-Di-o-tolylguanidine (DTG) in assay buffer containing Tris-HCl 50 mM at pH 8.0. NSB (non-specific binding) was measured by adding 10 μM haloperidol. The binding of the test compound was measured at either one concentration (% inhibition at 1 or 10 μM) or five different concentrations to determine affinity values (Ki). Plates were incubated at 25° C. for 120 minutes. After the incubation period, the reaction mix was transferred to MultiScreen HTS, FC plates (Millipore), filtered and washed 3 times with ice-cold 10 mM Tris-HCL (pH 8.0). Filters were dried and counted at approximately 40% efficiency in a MicroBeta scintillation counter (Perkin-Elmer) using EcoScint liquid scintillation cocktail.

The next assay has as its target T2, human σ1 receptor (Homo sapiens, UniProt Q99720).
T2 construct: expressed in transfected cells; host or cells: HEK-293
In words: Human σ1 receptor radioligand assay. To be noted: transfected HEK-293 membranes, 5 nM [3H](+)-pentazocine, 37° C. 120 minutes; + may also stand for 1-50% inhibition at 1 or 10 μM; read-out: Binding σ-1 Ki. The procedure: Human σ1 Receptor Radioligand Assay
Transfected HEK-293 membranes (7 μg) were incubated with 5 nM of [^3H](+)-pentazocine in assay buffer containing Tris-HCl 50 mM at pH 8. NBS (non-specific binding) was measured by adding 10 μM haloperidol. The binding of the test compound was measured at either one concentration (% inhibition at 1 or 10 μM) or five different concentrations to determine affinity values (Ki). Plates were incubated at 37° C. for 120 minutes. After the incubation period, the reaction mix was then transferred to MultiScreen HTS, FC plates (Millipore), filtered and plates were washed 3 times with ice-cold 10 mM Tris-HCL (pH7.4). Filters were dried and counted at approximately 40% efficiency in a MicroBeta scintillation counter (Perkin-Elmer) using EcoScint liquid scintillation cocktail.

T1 sequence (Q5BJF2 whole entry): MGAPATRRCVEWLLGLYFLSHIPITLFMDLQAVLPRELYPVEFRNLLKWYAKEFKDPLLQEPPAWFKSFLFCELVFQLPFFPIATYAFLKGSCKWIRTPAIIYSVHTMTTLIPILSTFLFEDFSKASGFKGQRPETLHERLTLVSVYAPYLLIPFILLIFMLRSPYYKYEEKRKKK
T2 sequence (Q99720 whole entry): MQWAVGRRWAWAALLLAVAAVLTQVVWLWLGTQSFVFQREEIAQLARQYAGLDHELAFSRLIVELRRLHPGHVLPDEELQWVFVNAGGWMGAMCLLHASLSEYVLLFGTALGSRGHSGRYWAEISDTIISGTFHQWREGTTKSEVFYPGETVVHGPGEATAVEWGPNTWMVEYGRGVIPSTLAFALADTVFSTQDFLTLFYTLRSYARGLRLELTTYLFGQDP

On to `CN(Cc1ccccc1)[C@H]1CC[C@H](NS(=O)(=O)c2ccc(N3CCC4(CCOC4)CC3)nc2)CC1` [Example 31], for which the inhibitory constant (Ki) on human σ2/TMEM97 receptor and at human σ1 receptor was less than 100 nM throughout.

Regarding `CN(Cc1ccccc1)[C@H]1CC[C@H](NS(=O)(=O)c2ccc(N3CCCOCC3)nc2)CC1` [Example 32, N-((1r,4r)-4-(Benzyl(methyl)amino)cyclohexyl)-6-(1,4-oxazepan-4-yl) pyridine-3-sulfonamide], the figures for the Ki at human σ2/TMEM97 receptor and on human σ1 receptor were less than 100 nM and 100 to 500 nM, respectively.

Take `COc1ccc(CNC[C@H]2CCCN(S(=O)(=O)c3ccc(N4CCOCC4)nc3)C2)cn1` [Example 33, (R)-1-(6-Methoxypyridin-3-yl)-N-((1-((6-morpholinopyridin-3-yl)sulfonyl)piperidin-3-yl)methyl) methanamine]: the inhibition constant Ki on human σ2/TMEM97 receptor was less than 100 nM; on human σ1 receptor it was greater than 1000 nM.

In the case of `COc1ccc(CNC[C@@H]2CCCN(S(=O)(=O)c3ccc(N4CCOCC4)nc3)C2)cn1` [Example 34, (S)-1-(6-Methoxypyridin-3-yl)-N-((1-((6-morpholinopyridin-3-yl)sulfonyl)piperidin-3-yl)methyl) methanamine], the figures for the Ki at human σ2/TMEM97 receptor and at human σ1 receptor were less than 100 nM and 500 to 1000 nM, respectively.

Turning to `O=S(=O)(N[C@H]1CCN(Cc2cccc(F)c2)C1)c1ccc(N2CCOCC2)nc1` [Example 35, (S)—N-(1-(3-Fluorobenzyl)pyrrolidin-3-yl)-6-morpholinopyridine-3-sulfonamide], the figures for the Ki on human σ2/TMEM97 receptor and on human σ1 receptor were greater than 1000 nM and less than 100 nM, respectively.

For the molecule `O=S(=O)(N[C@@H]1CCN(Cc2ccc(F)cc2)C1)c1ccc(N2CCOCC2)nc1` [Example 36, (R)-N-(1-(4-Fluorobenzyl)pyrrolidin-3-yl)-6-morpholinopyridine-3-sulfonamide], the Ki at human σ2/TMEM97 receptor was greater than 1000 nM; on human σ1 receptor it was less than 100 nM.

With `N#Cc1ccc(CN2CC[C@@H](NS(=O)(=O)c3ccc(N4CCOCC4)nc3)C2)cc1` [Example 37, (R)-N-(1-(4-Cyanobenzyl)pyrrolidin-3-yl)-6-morpholinopyridine-3-sulfonamide], the Ki was greater than 1000 nM on human σ2/TMEM97 receptor and less than 100 nM on human σ1 receptor.

Turning to `O=S(=O)(N[C@@H]1CCN(Cc2cccc(F)c2)C1)c1ccc(N2CCOCC2)nc1` [Example 38, (R)-N-(1-(3-Fluorobenzyl)pyrrolidin-3-yl)-6-morpholinopyridine-3-sulfonamide], the Ki was greater than 1000 nM on human σ2/TMEM97 receptor and less than 100 nM at human σ1 receptor.

For `N#Cc1ccc(CN2CC[C@H](NS(=O)(=O)c3ccc(N4CCOCC4)nc3)C2)cc1` [Example 39, (S)-N-(1-(4-Cyanobenzyl)pyrrolidin-3-yl)-6-morpholinopyridine-3-sulfonamide], the Ki on human σ2/TMEM97 receptor is greater than 1000 nM; on human σ1 receptor, less than 100 nM.

`N#Cc1cccc(CN2CC[C@@H](NS(=O)(=O)c3ccc(N4CCOCC4)nc3)C2)c1` [Example 40, (R)-N-(1-(3-Cyanobenzyl)pyrrolidin-3-yl)-6-morpholinopyridine-3-sulfonamide]: the Ki was greater than 1000 nM on human σ2/TMEM97 receptor and 100 to 500 nM at human σ1 receptor.

As for `O=S(=O)(N[C@H]1CCN(Cc2ccc(F)cc2)C1)c1ccc(N2CCOCC2)nc1` [Example 41, (S)-N-(1-(4-Fluorobenzyl)pyrrolidin-3-yl)-6-morpholinopyridine-3-sulfonamide], the Ki was greater than 1000 nM at human σ2/TMEM97 receptor and less than 100 nM at human σ1 receptor.

Regarding `N#Cc1cccc(CN2CC[C@H](NS(=O)(=O)c3ccc(N4CCOCC4)nc3)C2)c1` [Example 42, (S)-N-(1-(3-Cyanobenzyl)pyrrolidin-3-yl)-6-morpholinopyridine-3-sulfonamide], the results for the inhibitory constant (Ki) on human σ2/TMEM97 receptor and at human σ1 receptor were greater than 1000 nM and 500 to 1000 nM, respectively.

Consider `O=S(=O)(NC1CN(Cc2ccccc2)C1)c1ccc(N2CCOCC2)nc1` [Example 43, N-(1-Benzylazetidin-3-yl)-6-morpholinopyridine-3-sulfonamide], for which the Ki on human σ2/TMEM97 receptor was greater than 1000 nM; at human σ1 receptor, less than 100 nM.

In the case of `O=S(=O)(N[C@@H]1CCN(Cc2ccc(C(F)(F)F)nc2)C1)c1ccc(N2CCOCC2)nc1` [Example 44, (R)-6-Morpholino-N-(1-((6-(trifluoromethyl)pyridin-3-yl)methyl)pyrrolidin-3-yl)pyridine-3-sulfonamide], the values for the Ki at human σ2/TMEM97 receptor and on human σ1 receptor were greater than 1000 nM and 500 to 1000 nM, respectively.

Regarding `O=S(=O)(c1ccc(N2CCOCC2)nc1)N1CCC2(CCN(Cc3ccccc3)CC2)C1` [Example 45, 4-(5-((8-Benzyl-2,8-diazaspiro[4.5]decan-2-yl)sulfonyl)pyridin-2-yl)morpholine], the inhibition constant Ki on human σ2/TMEM97 receptor was in the range of 100 to 500 nM; at human σ1 receptor, 500 to 1000 nM.

As for `O=S(=O)(NC1CC2(CCN(Cc3ccccc3)CC2)C1)c1ccc(N2CCOCC2)nc1` [Example 46, N-(7-Benzyl-7-azaspiro[3.5]nonan-2-yl)-6-morpholinopyridine-3-sulfonamide], the Ki at human σ2/TMEM97 receptor was 100 to 500 nM; on human σ1 receptor, greater than 1000 nM.

As to `O=S(=O)(c1ccc(N2CCOCC2)nc1)N1CCC2(CC1)CN(Cc1ccccc1)C2` [Example 47, 4-(5-((2-Benzyl-2,7-diazaspiro[3.5]nonan-7-yl)sulfonyl)pyridin-2-yl)morpholine], the Ki on human σ2/TMEM97 receptor was 100 to 500 nM; on human σ1 receptor, greater than 1000 nM.

With `N#Cc1cccc(CN2CCC3(CC2)CCN(S(=O)(=O)c2ccc(N4CCOCC4)nc2)CC3)c1` [Example 48, 3-((9-((6-Morpholinopyridin-3-yl)sulfonyl)-3,9-diazaspiro[5.5]undecan-3-yl)methyl)benzonitrile], the Ki is less than 100 nM on human σ2/TMEM97 receptor and greater than 1000 nM at human σ1 receptor.

Take `CC(C)N([C@@H]1CCN(Cc2ccc(C#N)cc2)C1)S(=O)(=O)c1ccc(N2CCOCC2)nc1` [Example 49, (R)—N-(1-(4-Cyanobenzyl)pyrrolidin-3-yl)-N-isopropyl-6-morpholinopyridine-3-sulfonamide]: the Ki at human σ2/TMEM97 receptor and at human σ1 receptor was greater than 1000 nM each time.

`CC(C)N([C@H]1CCN(Cc2ccc(C#N)cc2)C1)S(=O)(=O)c1ccc(N2CCOCC2)nc1` [Example 50, (S)-N-(1-(4-Cyanobenzyl)pyrrolidin-3-yl)-N-isopropyl-6-morpholinopyridine-3-sulfonamide]: the Ki is greater than 1000 nM on human σ2/TMEM97 receptor and 500 to 1000 nM on human σ1 receptor.

Regarding `O=S(=O)(N[C@H]1CC[C@H](NCc2ccccc2)CC1)c1ccc(N2CCOCC2)nc1` [Example 51, N-((1 r,4r)-4-(Benzylamino)cyclohexyl)-6-morpholinopyridine-3-sulfonamide], the Ki at human σ2/TMEM97 receptor was 100 to 500 nM; on human σ1 receptor, greater than 1000 nM.

In the case of `N#Cc1cc(CN[C@H]2CC[C@H](NS(=O)(=O)c3ccc(N4CCOCC4)nc3)CC2)ccc1F` [Example 52, N-((1r,4r)-4-((3-Cyano-4-fluorobenzyl)amino)cyclohexyl)-6-morpholinopyridine-3-sulfonamide], the inhibition constant (Ki) at human σ2/TMEM97 receptor is 100 to 500 nM; on human σ1 receptor, greater than 1000 nM.

`O=S(=O)(N[C@H]1CC[C@H](NCc2ccccc2F)CC1)c1ccc(N2CCOCC2)nc1` [Example 53, N-((1r,4r)-4-((2-Fluorobenzyl)amino)cyclohexyl)-6-morpholinopyridine-3-sulfonamide]: the Ki on human σ2/TMEM97 receptor was 100 to 500 nM; at human σ1 receptor, greater than 1000 nM.

In the case of `O=S(=O)(N[C@H]1CC[C@H](NCc2cccc(F)c2)CC1)c1ccc(N2CCOCC2)nc1` [Example 54, N-((1r,4r)-4-((3-Fluorobenzyl)amino)cyclohexyl)-6-morpholinopyridine-3-sulfonamide], the inhibition constant Ki at human σ2/TMEM97 receptor and at human σ1 receptor was 100 to 500 nM throughout.

`O=S(=O)(N[C@H]1CC[C@H](NCc2ccncc2)CC1)c1ccc(N2CCOCC2)nc1` [Example 55, 6-Morpholino-N-((1r,4r)-4-((pyridin-4-ylmethyl)amino)cyclohexyl)pyridine-3-sulfonamide]: the inhibitory constant (Ki) at human σ2/TMEM97 receptor and on human σ1 receptor was greater than 1000 nM in each case.

With `CN(Cc1ccccc1F)[C@H]1CC[C@H](NS(=O)(=O)c2ccc(N3CCOCC3)nc2)CC1` [Example 56, N-((1r,4r)-4-((2-Fluorobenzyl)(methyl)amino)cyclohexyl)-6-morpholinopyridine-3-sulfonamide], the Ki at human σ2/TMEM97 receptor was less than 100 nM; on human σ1 receptor, greater than 1000 nM.

Turning to `CN(Cc1cccc(F)c1)[C@H]1CC[C@H](NS(=O)(=O)c2ccc(N3CCOCC3)nc2)CC1` [Example 57, N-((1r,4r)-4-((3-Fluorobenzyl) (methyl)amino)cyclo-hexyl)-6-morpholinopyridine-3-sulfonamide], the Ki was less than 100 nM at human σ2/TMEM97 receptor and greater than 1000 nM at human σ1 receptor.

On to `CN(Cc1ccc(F)c(C#N)c1)[C@H]1CC[C@H](NS(=O)(=O)c2ccc(N3CCOCC3)nc2)CC1` [Example 58, N-((1r,4r)-4-((3-Cyano-4-Fluorobenzyl)(methyl)amino)cyclo-hexyl)-6-morpholinopyridine-3-sulfonamide], for which the figures for the Ki at human σ2/TMEM97 receptor and at human σ1 receptor were less than 100 nM and greater than 1000 nM, respectively.
